Test results as given in ChEMBL document CHEMBL6120992, “Breviane Spiroditerpenoids with Anti-inflammatory and Antiviral Activities from Deep-Sea-Derived Fungus Penicillium sp. F59” (J Nat Prod, 2025).

Legend:
[1] = test system: RAW264.7; experiment: Cytotoxicity against mouse RAW264.7 cells assessed as cell viability at 20 microM incubated for 24 hrs by CCK-8 method relative to control; assay type: functional; details: read-out: Activity
[2] = test system: SARS-CoV-2; experiment: Antiviral activity against SARS-CoV-2 Omicron BA.2 pseudovirus infected in human 293T/ACE2 cells assessed as virus inhibition at 50 microM incubated for 24 hrs by firefly luciferase assay relative to control; assay type: functional; details: Severe acute respiratory syndrome coronavirus 2, Omicron BA.2, 293T/ACE2
[3] = test system: RAW264.7; experiment: Antiinflammatory activity in LPS-induced mouse RAW264.7 cells assessed as inhibition of nitric oxide secretion at 20 microM incubated for 24 hrs by Griess reagent based assay relative to control; assay type: functional
[4] = Cytotoxicity against human 293T/ACE2 cells assessed as cell viability at 100 microM incubated for 24 hrs by CellTiter assay relative to control; assay type: functional; details: read-out: Activity
[5] = test system: RAW264.7; experiment: Antiinflammatory activity in LPS-induced mouse RAW264.7 cells assessed as inhibition of nitric oxide secretion incubated for 24 hrs by Griess reagent based assay; assay type: functional, cell-based; details: RAW264.7, 24 h
[6] = test system: SARS-CoV-2; experiment: Antiviral activity against SARS-CoV-2 Omicron BA.2 pseudovirus infected in human 293T/ACE2 cells assessed as virus inhibition incubated for 24 hrs by firefly luciferase assay; assay type: functional, organism-based; details: Severe acute respiratory syndrome coronavirus 2, Omicron BA.2, 293T/ACE2, 24 h

SMILES	viability at 20 µM [1] [%]	inhibition at 50 µM [2] [%]	inhibition at 20 µM [3] [%]	viability at 100 µM [4] [%]	IC50 [5] [µM]	IC50 [6] [µM]
CC1=C[C@H](O)[C@@H]2[C@@]3(C)[C@H](O)C(=O)[C@H](O)C(C)(C)[C@@H]3CC[C@@]2(C)[C@]12Cc1c(c(C)c(C)oc1=O)O2	100	11	35	93		
CC1=C[C@H](O)[C@@H]2[C@@]3(C)C[C@@H](O)C(=O)C(C)(C)[C@@H]3CC[C@@]2(C)[C@]12Cc1c(c(C)c(C)oc1=O)O2	100	0	38	93		
CO[C@H]1c2c(c(C)c(C)oc2=O)O[C@]12C(C)=C[C@H]1O[C@H]3CC(=O)C=C(C)[C@@H]4CC[C@]2(C)[C@H]1[C@@]34C	85	0	57	92		
CC1=CC(=O)[C@@H]2[C@@]3(C)C=CC(=O)C(C)(C)[C@@H]3CC[C@@]2(C)[C@]12Cc1c(c(C)c(C)oc1=O)O2	100	23	87	95	5.3	
CC(=O)/C(C)=C1\C[C@H]2O[C@@H](O)[C@]34CC[C@H]5C(C)=CC(=O)C[C@@H]6O[C@H](C=C(C)[C@@]23O1)[C@@H]4[C@@]65C	100	0	38	90		
CC1=CC(=O)C[C@@H]2O[C@@H]3C=C(C)[C@@]45Oc6c(C)c(C)oc(=O)c6[C@@H]4OC[C@]54CC[C@@H]1[C@@]2(C)[C@@H]34	93	16	45	90		
CC1=CC(=O)C=C[C@]2(C)[C@H]3CC=C(C)[C@@]45Oc6c(C)c(C)oc(=O)c6[C@@H]4O[C@@H](O)[C@@]35CC[C@@H]12	91	28	69	93		
CC1=CC(=O)C=C[C@]2(C)[C@H]3C(O)C=C(C)[C@@]4(Cc5c(c(C)c(C)oc5=O)O4)[C@]3(C)CC[C@@H]12 (stereo partly drawn)	98	0	94	93	9.2	
CC1=CC(=O)C=C[C@]2(C)[C@H]3C(=O)C=C(C)[C@]4(Oc5c(C)c(C)oc(=O)c5[C@@H]4O)[C@]3(C)CC[C@@H]12	91	46	47	98		
CC1=CC(=O)C=C[C@]2(C)[C@H]3[C@@H](O)[C@@H]4O[C@]4(C)[C@@]4(Cc5c(c(C)c(C)oc5=O)O4)[C@]3(C)CC[C@@H]12	100	69	63	99		10.3
CC(=O)/C(C)=C1/C[C@H]2O[C@@H](O)[C@]34CC[C@H]5C(C)=CC(=O)C[C@@H]6O[C@H](C=C(C)[C@@]23O1)[C@@H]4[C@@]65C	96	15	31	92		
CC1=CC[C@@H]2[C@@]3(C)C=CC(=O)[C@@](C)(CO)[C@@H]3CC[C@@]2(C)[C@]12Cc1c(c(C)c(C)oc1=O)O2	87	14	49	97		
CC(=O)O[C@@H]1O[C@@H]2C/C(=C(/C)C(C)=O)O[C@]23C(C)=C[C@H]2O[C@H]4CC(=O)C=C(C)[C@@H]5CC[C@@]13[C@H]2[C@@]45C	100	57	34	92		
CC1=CC(=O)C[C@@H]2O[C@@H]3C=C(C)[C@]4(Oc5c(C)c(C)oc(=O)c5[C@@H]4O)[C@]4(C)CC[C@@H]1[C@@]2(C)[C@@H]34	100	43	52	92		
CC1=CC(=O)C[C@@H]2O[C@@H]3C=C(C)[C@@]4(Cc5c(c(C)c(C)oc5=O)O4)[C@]4(C)CC[C@@H]1[C@@]2(C)[C@@H]34	100	0	25	95		
CC1=CC(=O)C[C@@H]2O[C@@H]3C=C(C)[C@@]45Oc6c(C)c(C)oc(=O)c6[C@@H]4O[C@@H](O)[C@]54CC[C@@H]1[C@@]2(C)[C@@H]34	100	0	35	99		
CC1=CC(=O)[C@@H]2[C@@]3(C)[C@H](O)CC(=O)C(C)(C)[C@@H]3CC[C@@]2(C)[C@]12Cc1c(c(C)c(C)oc1=O)O2	99	28	45	91		
CC1=CC(=O)C=C[C@]2(C)[C@H]3[C@@H]4C=C(C)[C@@]56Oc7c(C)c(C)oc(=O)c7[C@@H]5O[C@@H](O4)[C@@]36CC[C@@H]12	93	95	98	94	1.4	8.5
CC(C)(C)c1ccc(S(=O)(=O)/C=C/C#N)cc1 [BAY-11-7085]	100	99	77	99	13.3	0.74
CC1=CC(=O)C=C[C@]2(C)[C@H]3[C@@H](O)C=C(C)[C@@]4(Cc5c(c(C)c(C)oc5=O)O4)[C@]3(C)CC[C@@H]12 [BREVIONE F]	100	5	79	97	12.9	
